These are literature values, as cited in patent publication US8333997B2, “Compositions for sustained release of nitric oxide, methods of preparing same and uses thereof” (priority 2006, dated 2012).

Data set [1] has as its system Methicillin sensitive and Methicillin resistant species. Conditions: against Methicillin sensitive and Methicillin resistant species.
For another data set, the system named is S. aureus. Conditions: dose-response study on S. aureus.

On to `C/C(=C\C(=O)OCCCCCCCCC(=O)O)C[C@@H]1OC[C@H](C[C@@H]2O[C@H]2[C@@H](C)[C@H](C)O)[C@@H](O)[C@H]1O` [Mupirocin], for which the efficacious concentration ranges in data set [1] was 25 to 256 mg/L. Turning to `[N]=O` [NO, nitric oxide], the “concentration at which NO exhibits potent antimicrobial properties” value with S. aureus was “above 160 ppm”.
